Test results from patent US20160138088A1, “OPTIMIZED PROBES AND PRIMERS AND METHODS OF USING SAME FOR THE DETECTION, SCREENING, ISOLATION AND SEQUENCING OF VANCOMYCIN RESISTANCE GENES AND VANCOMYCIN RESISTANT ENTEROCOCCI” (priority 2009, published 2016).
Values joined by “and” are separate entries in the source; they are usually repeats but may differ in a detail not shown here. Equal entries are not always repeated.

B1: vanA: vanA oligonucleotide solution: SEQ ID NO: 1, 2, and 5 (nucleic acid)
DNA 1: TTGTGCGGTATTGGGAAACAGT
DNA 2: TGATTTGGTCCACCTCGCCAACAACTAACGC
DNA 3: CTCGACTTCCTGATGAATACGAAAGATTC
modifications: chemistry not given here
B2: vanB: vanB oligonucleotide solution: SEQ ID NOS: 103, 108, and 66 (nucleic acid)
DNA 1: TTACCTACCCTGTCTTTGTGAA
DNA 2: CAGGTTCGTCCTTTGGCGTAACCA
DNA 3: GCTCAATTAAGATTTTTCCATCATATTGTC
modifications: chemistry not given here

Tests used:
VanC phenotype (vanC) = settings: allele vanC; cited from earlier work
VanE phenotype (vanE) = settings: allele vanE; cited from earlier work
VanG phenotype (vanG) = settings: allele vanG; cited from earlier work
VanD phenotype (vanD) = settings: allele vanD; cited from earlier work
VanB phenotype (vanB) = settings: allele vanB; cited from earlier work
VanA phenotype (vanA) = settings: allele vanA; cited from earlier work
[1] = tested on: E. faecium vanA synthetic construct; test: Real-time PCR amplification of vanA synthetic construct; settings: Input synthetic construct (vanA); oligos 400 nM each; ABI 7500, 50 cycles
Method: (§1) The oligonucleotide sequences listed in Table 5 were tested for their ability to amplify their intended target sequences. About 25 μL PCRs were formulated using iQTM Supermix for qPCR (BioRad) and oligos at a final concentration of 400 nM each.
(§2) Genomic DNA isolated from E. faecium (ATCC No. 5159, strain MMC4, vanA) and E. faecalis (ATCC No. 700802, strain V583, vanB) were loaded into real-time PCRs using oligonucleotide solutions specific for vanA and vanB. The specificity of the oligonucleotide solutions was assessed by attempting to amplify E. faecalis (vanB) gDNA with vanA oligos and E. faecium (vanA) gDNA with vanB oligos. Amplification plots are illustrated in FIGS. 1 and 2, which show detection of vanA and vanB. Synthetic constructs encoding the vanA and vanB targets were amplified and compared to duplicate reactions where E. faecium (ATCC No. 5159, strain MMC4, vanA) and E. faecalis (ATCC No. 700802, strain V583, vanB) gDNA was amplified.
(§3) PCRs were run on the ABI 7500 with the following Thermal protocol: • 95° C. 5 minute, initial denaturation • 50 cycles of: • 95° C. 15 sec, denaturation, and • 60° C. 1 min, annealing/extension […]

[2] = tested on: E. faecalis (ATCC No. 700802, strain V583, vanB) gDNA; test: Real-time PCR on E. faecalis (vanB) gDNA; settings: Input E. faecalis (ATCC No. 700802, strain V583, vanB) gDNA; duplicate reactions; oligos 400 nM each
Method: as §1, §2, §3

[3] = tested on: E. faecium (ATCC No. 5159, strain MMC4, vanA) gDNA; test: Real-time PCR on E. faecium (vanA) gDNA; settings: Input E. faecium (ATCC No. 5159, strain MMC4 vanA) gDNA; duplicate reactions; oligos 400 nM each
Method: as §1, §2, §3

[4] = tested on: E. faecalis vanB synthetic construct; test: Real-time PCR amplification of vanB synthetic construct; settings: Input synthetic construct (vanB); oligos 400 nM each; ABI 7500, 50 cycles
Method: as §1, §2, §3

Molecule | MIC (VanC phenotype (vanC)) | MIC (VanE phenotype (vanE)) | MIC (VanG phenotype (vanG)) | MIC (VanD phenotype (vanD)) | MIC (VanB phenotype (vanB)) | MIC (VanA phenotype (vanA)) | Ct [1] | Ct [2] | Ct [3] | Ct [4]
CN[C@H](CC(C)C)C(=O)N[C@H]1C(=O)N[C@@H](CC(N)=O)C(=O)N[C@H]2C(=O)N[C@H]3C(=O)N[C@H](C(=O)N[C@H](C(=O)O)c4cc(O)cc(O)c4-c4cc3ccc4O)[C@H](O)c3ccc(c(Cl)c3)Oc3cc2cc(c3O[C@@H]2O[C@H](CO)[C@@H](O)[C@H](O)[C@H]2O[C@H]2C[C@](C)(N)[C@H](O)[C@H](C)O2)Oc2ccc(cc2Cl)[C@H]1O [vancomycin] | 2-32 (low) μg/mL | 16 (low) μg/mL | 12-16 (low) μg/mL | 128 (moderate) μg/mL | 4-1024 (can be high) μg/mL |  |  |  |  | 
teicoplanin | ≦0.5 (sensitive) μg/mL | 0.5 (sensitive) μg/mL | 0.5 (sensitive) μg/mL | 4 (moderate) μg/mL | ≦0.5 (sensitive) μg/mL | 16-512 (high) μg/mL |  |  |  | 
B1 |  |  |  |  |  |  | 23.36 | UND | 19.67 and 19.80 | 
B2 |  |  |  |  |  |  |  | 21.85 and 21.53 | UND | 24.04
